Reference: PMC6473744, “Antiproliferative Activity of (-)-Rabdosiin Isolated from Ocimum sanctum L” (Medicines, 2019)
In brackets after ≈: the same amount, converted by molar mass.

Legend:
MCF-7 [1] = assay: MTT reduction assay, cytotoxicity; assay type: cell-based, human; conditions: for IC50: Homo sapiens, MCF7
Experimental: Compounds were prepared at a stock solution of 10.0 mg/mL in DMSO and the extract at 20.0 mg/mL in DMSO. […] Cytotoxicity was evaluated by the MTT reduction assay, which determines the effect of treatment with an exogenously added agent on the viability of the cell population. […] Further, cells were incubated with the compounds for 72 h at 37 °C in a 5% CO2 incubator. The MTT reagent (Sigma-Aldrich, Darmstadt, Germany; 1 mg/mL in phosphate buffered saline (PBS); 100 μL/well) was added during the last 4 h of incubation. The formazan crystals formed were dissolved by adding 0.1 M HCl in 2-propanol (100 μL/well) and absorption was measured using an ELISA reader (Denley WeScan, Finland) at 545 nm with reference filter set at 690 nm. All cultures were set in triplicate, whereas cells incubated in complete medium or in medium containing the equivalent amount of DMSO, as well as cells incubated in the presence of doxorubicin (Sigma-Aldrich) were used as negative and positive controls, respectively.
All experiments were performed at least three times.

[2] = tested on: human peripheral blood mononuclear cells (PBMCs); assay: Cytotoxic effect against PBMCs, annexin V/PI flow cytometry; assay type: cell-based; conditions: 24 h
Experimental: (§1) MCF-7, SKBR3 and HCT-116 cells were incubated with compound 6 and analyzed with flow cytometry following staining with annexin V and propidium iodide (PI). […] Cells were detached with 2 mM EDTA in Dulbecco’s PBS (DPBS), harvested, centrifuged in cold PBS (1500 rpm; 5 min), and stained with the Annexin V-FITC Apoptosis Detection Kit (BioLegend, Fell, Germany; cat# 640914), according to the manufacturers’ instructions. In brief, cells were resuspended in binding buffer, then annexin V-FITC (5 μL) and PI (10 μL; 0.03 μg/sample) were added, mixed, and incubated with the cells for 15 min in the dark at room temperature. The volume was adjusted to 500 μL with binding buffer and the cell suspension was immediately analyzed in a FACSCanto II (BD Biosciences, San Diego, CA, USA) using FACSDiva software (V7, BD Biosciences).
Compound 6 was additionally assessed for its cytotoxicity against human peripheral blood mononuclear cells (PBMCs) isolated from healthy blood donors’ peripheral blood as previously described. Prior to blood draw, individuals gave their informed consent according to the regulations approved by the 2nd Peripheral Blood Transfusion Unit and Hemophiliac Centre, “Laikon” General Hospital Institutional Review Board, Athens, Greece. PBMCs were seeded in 24-well plates (5 × 10^5/mL; 2 mL/well) and exposed to 2 concentrations of compound 6: 80 μg/mL and 40 μg/mL. PBMCs were collected, stained as described in 2.5 and analyzed by flow cytometry.

HCT-116 [3] = assay: MTT reduction assay, cytotoxicity; assay type: cell-based; conditions: Homo sapiens
Experimental: (§2) The cytotoxic activity of the compounds, as well as of the initial methanol extract, were tested against three human cancer cell lines: MCF-7 (breast; estrogen receptor positive (ER+), progesterone receptor (PR)+, and HER2 negative (-)), SKBR3 (breast; ER-, PR-, and HER2+), and HCT-116 (colon). All cell lines were maintained in RPMI-1640, supplemented with 10% heat-inactivated fetal bovine serum (FBS), 10 mM Hepes, 10 U/mL penicillin, 10 U/mL streptomycin, and […] (all from Lonza, Cologne, Germany) (thereafter referred to as complete medium) at 37 °C in a humidified 5% CO2 incubator.
(§3) Compounds were prepared at a stock solution of 10.0 mg/mL in DMSO and the extract at 20.0 mg/mL in DMSO. Prior to their use, they were diluted in plain RPMI-1640. Cytotoxicity was evaluated by the MTT reduction assay, which determines the effect of treatment with an exogenously added agent on the viability of the cell population. Briefly, cells were plated in 96-well plates (Greiner Bio-One GmbH, Frickenhausen, Germany; 5 × 10^3 cells/well) and incubated at 5% CO2 and 95% air at 37 °C for 24 h, in order to adhere. Further, cells were incubated with the compounds for 72 h at 37 °C in a 5% CO2 incubator. The MTT reagent (Sigma-Aldrich, Darmstadt, Germany; 1 mg/mL in phosphate buffered saline (PBS); 100 μL/well) was added during the last 4 h of incubation. The formazan crystals formed were dissolved by adding 0.1 M HCl in 2-propanol (100 μL/well) and absorption was measured using an ELISA reader (Denley WeScan, Finland) at 545 nm with reference filter set at 690 nm. All cultures were set in triplicate, whereas cells incubated in complete medium or in medium containing the equivalent amount of DMSO, as well as cells incubated in the presence of doxorubicin (Sigma-Aldrich) were used as negative and positive controls, respectively. The half maximal inhibitory concentration (IC50) was calculated according to the formula: 100(A0 − A)/A0 = 50, where A and A0 are optical densities of wells exposed to the compounds and control wells, respectively.
(§4) The compounds were tested at a concentration range of 200.0 to 6.25 μg/mL and the extract at 750.0 to 1.25 μg/mL. […] All experiments were performed at least three times.

SKBR3 [4] = assay: MTT reduction assay, cytotoxicity; assay type: cell-based; conditions: Homo sapiens, SK-BR-3
Experimental: as §2, §3, §4

[5] = tested on: MCF-7, SKBR3, and HCT-116 cells; assay: Annexin V/PI flow cytometry, stated for all cell lines together; assay type: cell-based, human; conditions: 72 h
Experimental: as §1

MCF-7 [6] = assay: Annexin V/PI flow cytometry analysis; assay type: cell-based, human; conditions: MCF-7, 80 μg/mL, 72 h
Experimental: as §1

HCT-116 [7] = assay: Annexin V/PI flow cytometry analysis; assay type: cell-based, human; conditions: HCT-116, 80 μg/mL, 72 h
Experimental: as §1

SKBR3 [8] = assay: Annexin V/PI flow cytometry analysis; assay type: cell-based, human; conditions: SKBR3, 80 μg/mL, 72 h
Experimental: as §1

[9] = tested on: MCF-7, SKBR3, and HCT-116; assay: MTT reduction assay, stated for all cell lines together; assay type: cell-based; conditions: Homo sapiens; all cell lines tested, positive control
Experimental: as §2
Compounds were prepared at a stock solution of 10.0 mg/mL in DMSO and the extract at 20.0 mg/mL in DMSO. Prior to their use, they were diluted in plain RPMI-1640. Cytotoxicity was evaluated by the MTT reduction assay, which determines the effect of treatment with an exogenously added agent on the viability of the cell population. […] The formazan crystals formed were dissolved by adding 0.1 M HCl in 2-propanol (100 μL/well) and absorption was measured using an ELISA reader (Denley WeScan, Finland) at 545 nm with reference filter set at 690 nm. […] The half maximal inhibitory concentration (IC50) was calculated according to the formula: 100(A0 − A)/A0 = 50, where A and A0 are optical densities of wells exposed to the compounds and control wells, respectively. […]

[10] = MCF-7, 72 h exposure, mean ± SD of three experiments
[11] = 40 μg/mL, range over the cell lines

**Q.** Which IC50 (MCF-7 [1]; [10]) does the source give for `O=C(O[C@H](Cc1ccc(O)c(O)c1)C(=O)O)C1=Cc2cc(O)c(O)cc2[C@@H](c2ccc(O)c(O)c2)[C@@H]1C(=O)O[C@H](Cc1ccc(O)c(O)c1)C(=O)O` [Compound 6, (-)-rabdosiin] here?
**A.** Its IC50 is 75 ± 2.12 µg/mL.

**Q.** What about the “early apoptotic PBMCs” value ([2]; donor 1, 40 μg/mL) of the same molecule?
**A.** The value was 1.8%.

**Q.** What about the “late apoptotic/necrotic PBMCs” value ([2]; donor 1, 40 μg/mL) of the same molecule?
**A.** Its value is 1.7%.

**Q.** And the “early apoptotic PBMCs” value ([2]; donor 1, 80 μg/mL)?
**A.** Its value is 2.8%.

**Q.** And the “late apoptotic/necrotic PBMCs” value ([2]; donor 1, 80 μg/mL)?
**A.** The value was 3.0%.

**Q.** What about the “early apoptotic PBMCs” value ([2]; donor 2, 40 μg/mL) of the same molecule?
**A.** The value was 2.1%.

**Q.** What about the “late apoptotic/necrotic PBMCs” value ([2]; donor 2, 40 μg/mL) of the same molecule?
**A.** Its value is 1.9%.

**Q.** What about the “early apoptotic PBMCs” value ([2]; donor 2, 80 μg/mL) of the same molecule?
**A.** Its value is 4.3%.

**Q.** What about the “late apoptotic/necrotic PBMCs” value ([2]; donor 2, 80 μg/mL) of the same molecule?
**A.** Its value is 3.1%.

**Q.** And the IC50 (HCT-116 [3]; HCT-116, 72 h exposure, mean ± SD of three experiments)?
**A.** Its IC50 is 84 ± 7.78 µg/mL.

**Q.** And the IC50 (SKBR3 [4]; SKBR3, 72 h exposure, mean ± SD of three experiments)?
**A.** The IC50 was 83 ± 3.54 µg/mL.

**Q.** And the early apoptotic cells [5, 11]?
**A.** Its early apoptotic cells is 13.5–20.1%.

**Q.** What about the late apoptotic/necrotic cells [5, 11] of the same molecule?
**A.** The late apoptotic/necrotic cells was 3.9–6.5%.

**Q.** And the “cells driven to apoptosis” value ([5]; 80 μg/mL, all cell lines)?
**A.** The value was “ca. 50%”.

**Q.** What about the “early apoptotic cells (annexin V+)” value (MCF-7 [6]) of the same molecule?
**A.** The value was 44.9%.

**Q.** What about the “late apoptotic/necrotic cells (annexin V+/PI+)” value (MCF-7 [6]) of the same molecule?
**A.** The value was 12.3%.

**Q.** And the “early apoptotic cells (annexin V+)” value (HCT-116 [7])?
**A.** Its value is 43.1%.

**Q.** What about the “late apoptotic/necrotic cells (annexin V+/PI+)” value (HCT-116 [7]) of the same molecule?
**A.** Its value is 10.2%.

**Q.** What about the “early apoptotic cells (annexin V+)” value (SKBR3 [8]) of the same molecule?
**A.** Its value is 40.1%.

**Q.** And the “late apoptotic/necrotic cells (annexin V+/PI+)” value (SKBR3 [8])?
**A.** The value was 9.1%.

**Q.** For `O=C(O[C@H](Cc1ccc(O)c(O)c1)C(=O)O)[C@H]1[C@H](C(=O)O[C@H](Cc2ccc(O)c(O)c2)C(=O)O)[C@H](c2ccc(O)c(O)c2)[C@H]1c1ccc(O)c(O)c1` [Compound 7, shimobashiric acid C], which “IC50 ± SD” value (MCF-7 [1]; [10]) is on record?
**A.** The value was 142 ± 3.54 µg/mL (≈ 197 µM).

**Q.** Which “IC50 ± SD” value (MCF-7 [1]; [10]) does the source give for `O=C(O)[C@H]1O[C@@H](Oc2cc(O)c3c(=O)cc(-c4ccc(O)c(O)c4)oc3c2)[C@H](O)[C@@H](O)[C@@H]1O` [Compound 9, luteolin 7-O-β-D-glucuronide] here?
**A.** Its value is 141 ± 1.41 µg/mL (≈ 305 µM).

**Q.** `O=C(O)/C=C/c1ccc(O[C@@H]2O[C@H](CO)[C@@H](O)[C@H](O)[C@H]2O)cc1` [Compound 11, (E)-p-coumaroyl 4-O-β-D-glucoside] was tested. Which “IC50 ± SD” value (MCF-7 [1]; [10]) did it give?
**A.** The value was 139 ± 7.78 µg/mL (≈ 426 µM).

**Q.** For `O=C(O)C(O)Cc1ccc(O)c(O)c1` (centres unmarked) [Compound 12, 3-(3,4-dihydroxyphenyl) lactic acid], which IC50 (MCF-7 [1]; [10]) is on record?
**A.** The IC50 was 140 ± 12 µg/mL.

**Q.** How did the IC50 (MCF-7 [1]; [10]) turn out when `O=C(O)c1ccc(O)c(O)c1` [Compound 13, protocatechuic acid] was run?
**A.** Its IC50 is 140 ± 4.95 µg/mL.

**Q.** With `COc1cccc2c1C(=O)c1c(O)c3c(c(O)c1C2=O)C[C@@](O)(C(=O)CO)C[C@@H]3O[C@H]1C[C@H](N)[C@H](O)[C@H](C)O1` [Doxorubicin, reference compound] as the molecule, how does the IC50 (MCF-7 [1]; MCF-7, positive control) read?
**A.** Its IC50 is 92 ± 7 nM.

**Q.** What about the IC50 [9] of the same molecule?
**A.** The IC50 was ≤ 200 nM.

**Q.** What about the IC50 (HCT-116 [3]; HCT-116, positive control) of the same molecule?
**A.** The IC50 was 192 ± 29 nM.

**Q.** What about the IC50 (SKBR3 [4]; SKBR3, positive control) of the same molecule?
**A.** The IC50 was 95 ± 8 nM.
